Experimental data published in patent US10849983B2, “Development of soluble albuminated curcumin for application in cancer therapy” (Sree Chitra Tirunal Institute for Medical Sciences and …, priority 2013, dated 2020).

Experiments:
lung cancer (A549) cells = assay: A549 lung cancer cells, phase contrast microscopy, cell cycle analysis and apoptosis by flow cytometry; type: cell-based, human; settings: 48h, Flowjo
Method: (§1) To study the effect of the drug conjugate on cancer cells, Lung (A549), Leukemia (K562), & Prostate (PC-3) cell lines were procured from NCCS, Pune. On receipt, the cell lines were sub cultured and sufficient numbers of vials were stored in […]. deep freezer. To study the effect of curcumin on angiogenesis, primary endothelial cells isolated from sheep was used. The effects on primary human fibroblast cells were also studied. Each cell line was maintained in their respective recommended media. A549, PC3 and fibroblast cells were maintained in DMEM media with 10% FBS. K562 cells were maintained in IMDM media supplemented with 10% FBS and endothelial cells in MCDB media with 10% FBS, L-ascorbic acid, VEGF and L-Glutamine.
(§2) The effect of curcumin was analyzed on cell apoptosis and cycle arrest. Different concentrations of the alb-cur conjugate were added into the cultures. The concentrations employed were 250 μM, 500 μM, and 1000 μM which were achieved by adding stock prepared by dissolving lyophilized curcumin-albumin conjugate.
(§3) The efficacy of the loaded drug was analyzed using solid tumor cell lines of prostate cancer (PC-3) [FIGS. 4 & 5] lung cancer (A549) [FIGS. 6 & 7B] and suspension cell line of leukemia (K562) [FIGS. 7A & 8]. The toxicity of the conjugated albumin-curcumin complex was assed by Live/Dead assay using Annexin V in primary fibroblasts. […]

[1] = test system: prostate cancer (PC-3) cells; assay: PC-3 cells, phase contrast microscopy and Live/Dead (Annexin V) assay; type: cell-based, human; settings: 24h, phase contrast microscopy, curcumin in DMSO
Method: as §1, §2, §3

Row | Compound | cell cycle distribution of A549 cells (positive control) (lung cancer (A549) cells) | morphology of PC-3 cells [1]
1 | O=c1[nH]cc(F)c(=O)[nH]1 [Example 5-FU] | slight increase in the population of cells in the S phase | –
2 | COc1cc(/C=C/C(=O)CC(=O)/C=C/c2ccc(O)c(OC)c2)ccc1O [cur/DMSO, curcumin] | – | normal morphological features
